Test results as given in US20260217767A1, “NOVEL A4B7 THIOETHER PEPTIDE DIMER ANTAGONISTS” (Protagonist Therapeutics, Inc., priority 2014, published 2026).
*1 amine or outer side, *2 acyl side, *3 side chain or, on linkers, in order; H or OH if unused. Where a SMILES comes first, the peptide text is derived from it. Bridges are numbered along the chain shown (N, C = ends). Roman numbers before positions name the chains, in order. [ ]: non-standard residue; d: D form. Phe(4-CF3) = N[C@@H](Cc1ccc(C(F)(F)F)cc1)C(=O)O; 1Nal = N[C@@H](Cc1cccc2ccccc12)C(=O)O; Diglycolyl = O=C(COCC(=O)[*:2])[*:1]; NMeR = CN[C@@H](CCCNC(=N)N)C(=O)O; Tic = O=C(O)[C@@H]1Cc2ccccc2CN1; X1 = O=C(c1ccccc1C[*:2])[*:1]; Pen = CC(C)(S)[C@H](N)C(=O)O

What follows are molecules tested against T1, rh integrin α4β7 (Homo sapiens, UniProt P13612+P26010) (assay: α4β7-MAdCAM Competition ELISA). Conditions: thioether monomer peptides, Table 6; read-out: ELISA A4B7.
T1 construct: purchased R&D Systems 5397-A30
T1 sequence (P13612 34-977 limits assumed): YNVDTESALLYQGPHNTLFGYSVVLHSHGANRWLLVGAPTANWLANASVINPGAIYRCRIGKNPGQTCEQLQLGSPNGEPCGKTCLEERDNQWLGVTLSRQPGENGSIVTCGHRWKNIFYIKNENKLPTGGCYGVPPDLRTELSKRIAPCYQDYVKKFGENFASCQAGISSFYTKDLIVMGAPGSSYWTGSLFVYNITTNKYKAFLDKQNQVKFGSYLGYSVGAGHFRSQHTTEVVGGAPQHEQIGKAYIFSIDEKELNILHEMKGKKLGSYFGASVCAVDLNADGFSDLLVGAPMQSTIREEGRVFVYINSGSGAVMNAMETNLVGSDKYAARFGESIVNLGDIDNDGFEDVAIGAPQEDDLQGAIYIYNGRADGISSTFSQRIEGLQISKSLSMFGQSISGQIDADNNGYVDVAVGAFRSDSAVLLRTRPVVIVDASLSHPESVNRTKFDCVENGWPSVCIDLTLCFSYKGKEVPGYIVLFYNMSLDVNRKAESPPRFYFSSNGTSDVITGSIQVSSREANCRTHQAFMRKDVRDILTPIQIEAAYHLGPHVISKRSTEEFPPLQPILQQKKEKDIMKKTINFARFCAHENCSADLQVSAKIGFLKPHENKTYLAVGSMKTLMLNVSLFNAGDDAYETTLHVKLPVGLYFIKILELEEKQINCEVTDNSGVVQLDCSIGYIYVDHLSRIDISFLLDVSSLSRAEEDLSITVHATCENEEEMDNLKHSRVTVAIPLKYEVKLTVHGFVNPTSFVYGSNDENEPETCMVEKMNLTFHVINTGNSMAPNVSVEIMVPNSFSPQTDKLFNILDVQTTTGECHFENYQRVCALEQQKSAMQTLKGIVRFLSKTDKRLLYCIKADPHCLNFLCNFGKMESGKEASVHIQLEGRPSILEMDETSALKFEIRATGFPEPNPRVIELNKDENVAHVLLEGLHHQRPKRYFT
T1 sequence (P26010 20-723 limits assumed): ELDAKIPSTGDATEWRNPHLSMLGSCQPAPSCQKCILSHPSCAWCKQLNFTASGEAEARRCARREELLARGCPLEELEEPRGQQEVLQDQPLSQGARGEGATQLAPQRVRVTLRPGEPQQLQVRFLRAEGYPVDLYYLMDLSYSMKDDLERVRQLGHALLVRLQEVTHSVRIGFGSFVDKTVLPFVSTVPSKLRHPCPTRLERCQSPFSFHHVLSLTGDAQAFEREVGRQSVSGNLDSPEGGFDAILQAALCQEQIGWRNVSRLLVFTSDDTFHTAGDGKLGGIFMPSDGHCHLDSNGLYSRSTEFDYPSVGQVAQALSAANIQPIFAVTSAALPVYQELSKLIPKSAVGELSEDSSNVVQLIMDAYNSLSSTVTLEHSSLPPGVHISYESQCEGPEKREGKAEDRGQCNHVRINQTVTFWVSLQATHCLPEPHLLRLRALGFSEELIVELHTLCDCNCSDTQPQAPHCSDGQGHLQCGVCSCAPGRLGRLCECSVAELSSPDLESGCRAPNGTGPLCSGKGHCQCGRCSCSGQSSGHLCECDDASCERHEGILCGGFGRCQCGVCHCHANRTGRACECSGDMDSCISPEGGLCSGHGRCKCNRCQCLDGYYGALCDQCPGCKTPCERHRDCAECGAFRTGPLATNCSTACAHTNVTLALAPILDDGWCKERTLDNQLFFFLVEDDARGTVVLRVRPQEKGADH
Assay type: binding
In short: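 Recombinant human α4β7 captured on nickel-coated plates, then incubated 1 h at room temperature with serially diluted peptides (final top 10 μM) and 10 nM final MAdCAM-1 in Tris pH 7.6 buffer with 1 mM MnCl2 or MgCl2. Bound MAdCAM-1 detected with anti-human IgG1-HRP and TMB, absorbance at 450 nm.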

SMILES	IC50 [nM]
CC(C)C[C@@H]1NC(=O)[C@H]([C@@H](C)O)NC(=O)[C@H](CC(=O)O)NC(=O)[C@H](CO)NC(=O)[C@H](CCCNC(=N)N)N(C)C(=O)c2ccccc2CSC(C)(C)[C@@H](C(=O)N[C@@H](Cc2cccc3ccccc23)C(=O)N[C@H](CCC(=O)O)C(=O)N(C)[C@@H](CCCCN)C(N)=O)NC1=O [compound 69] (HELM PEPTIDE1{[meR].S.D.T.L.[Pen].[O=C([C@H](Cc1cccc2ccccc12)N[*:1])[*:2]].[dE].[meK].[am]}|CHEM1{[O=C(c1ccccc1C[*:2])[*:1]]}$PEPTIDE1,CHEM1,1:R1-1:R1|PEPTIDE1,CHEM1,6:R3-1:R2$$$V2.0)	< 25
CC(=O)NCCCC[C@@H](NC(=O)[C@@H](CCC(=O)O)NC(=O)[C@H](Cc1c[nH]c2ccccc12)NC(=O)[C@H]1NC(=O)[C@H](CC(C)C)NC(=O)[C@H]([C@@H](C)O)NC(=O)[C@H](CC(=O)O)NC(=O)[C@H](CO)NC(=O)[C@H](CCCNC(=N)N)N(C)C(=O)c2ccccc2CSC1(C)C)C(N)=O [compound 81] (HELM PEPTIDE1{[meR].S.D.T.L.[Pen].W.[dE].[dK].[am]}|PEPTIDE2{[ac]}|CHEM1{[O=C(c1ccccc1C[*:2])[*:1]]}$PEPTIDE1,PEPTIDE2,9:R3-1:R2|PEPTIDE1,CHEM1,1:R1-1:R1|PEPTIDE1,CHEM1,6:R3-1:R2$$$V2.0)	< 25
CC(=O)NCCCC[C@@H](NC(=O)[C@@H](CCC(=O)O)NC(=O)[C@H](Cc1ccc(O)cc1)NC(=O)[C@H]1NC(=O)[C@H](CC(C)C)NC(=O)[C@H]([C@@H](C)O)NC(=O)[C@H](CC(=O)O)NC(=O)[C@H](CO)NC(=O)[C@H](CCCNC(=N)N)N(C)C(=O)c2ccccc2CSC1(C)C)C(N)=O [compound 91] (HELM PEPTIDE1{[meR].S.D.T.L.[Pen].Y.[dE].[dK].[am]}|PEPTIDE2{[ac]}|CHEM1{[O=C(c1ccccc1C[*:2])[*:1]]}$PEPTIDE1,PEPTIDE2,9:R3-1:R2|PEPTIDE1,CHEM1,1:R1-1:R1|PEPTIDE1,CHEM1,6:R3-1:R2$$$V2.0)	< 25
CC(=O)NCCCC[C@@H](NC(=O)[C@H](CCC(=O)O)NC(=O)[C@H](Cc1c[nH]c2ccccc12)NC(=O)[C@H]1NC(=O)[C@H](CC(C)C)NC(=O)[C@H]([C@@H](C)O)NC(=O)[C@H](CC(=O)O)NC(=O)[C@H](CO)NC(=O)[C@H](CCCNC(=N)N)N(C)C(=O)c2ccccc2CSC1(C)C)C(N)=O [compound 80] (HELM PEPTIDE1{[meR].S.D.T.L.[Pen].W.E.[dK].[am]}|PEPTIDE2{[ac]}|CHEM1{[O=C(c1ccccc1C[*:2])[*:1]]}$PEPTIDE1,PEPTIDE2,9:R3-1:R2|PEPTIDE1,CHEM1,1:R1-1:R1|PEPTIDE1,CHEM1,6:R3-1:R2$$$V2.0)	< 25
CC(C)C[C@@H]1NC(=O)[C@H]([C@@H](C)O)NC(=O)[C@H](CC(=O)O)NC(=O)[C@H](CO)NC(=O)[C@H](CCCNC(=N)N)N(C)C(=O)c2ccccc2CSC(C)(C)[C@@H](C(=O)N[C@@H](Cc2c[nH]c3ccccc23)C(=O)N[C@@H](CCC(=O)O)C(=O)N[C@@H](CN)C(N)=O)NC1=O [compound 92] (HELM PEPTIDE1{[meR].S.D.T.L.[Pen].W.E.[NC[C@H](N[*:1])C(=O)[*:2]].[am]}|CHEM1{[O=C(c1ccccc1C[*:2])[*:1]]}$PEPTIDE1,CHEM1,1:R1-1:R1|PEPTIDE1,CHEM1,6:R3-1:R2$$$V2.0)	< 25
CC(C)C[C@@H]1NC(=O)[C@H]([C@@H](C)O)NC(=O)[C@H](CC(=O)O)NC(=O)[C@H](CO)NC(=O)[C@H](CCCNC(=N)N)N(C)C(=O)c2ccccc2CSC(C)(C)[C@@H](C(=O)N[C@@H](Cc2c[nH]c3ccccc23)C(=O)N[C@@H](CCC(=O)O)C(N)=O)NC1=O [compound 96] (HELM PEPTIDE1{[meR].S.D.T.L.[Pen].W.E.[am]}|CHEM1{[O=C(c1ccccc1C[*:2])[*:1]]}$PEPTIDE1,CHEM1,1:R1-1:R1|PEPTIDE1,CHEM1,6:R3-1:R2$$$V2.0)	< 25

Same assay, conditions: thioether peptide dimers, Table 7; read-out: ELISA A4B7

SMILES	IC50 [nM]
CC(C)C[C@@H]1NC(=O)[C@H]([C@@H](C)O)NC(=O)[C@H](CC(=O)O)NC(=O)[C@H](CO)NC(=O)[C@H](CCCNC(=N)N)N(C)C(=O)c2ccccc2CSC[C@@H](C(=O)N2Cc3ccccc3C[C@H]2C(=O)N[C@H](CCC(=O)O)C(=O)N[C@H](CCCCNC(=O)COCC(=O)NCCCC[C@@H](NC(=O)[C@@H](CCC(=O)O)NC(=O)[C@@H]2Cc3ccccc3CN2C(=O)[C@@H]2CSCc3ccccc3C(=O)N(C)[C@@H](CCCNC(=N)N)C(=O)N[C@@H](CO)C(=O)N[C@@H](CC(=O)O)C(=O)N[C@@H]([C@@H](C)O)C(=O)N[C@@H](CC(C)C)C(=O)N2)C(=O)O)C(=O)O)NC1=O [compound 207] (I: [NMeR]SDTLC[Tic][dE][dK]-OH / II: [NMeR]SDTLC[Tic][dE][dK]-OH; linker I:9-II:9 via Diglycolyl; linker I:N-I:6, II:N-II:6 via X1)	< 25
CC(C)C[C@@H]1NC(=O)[C@H]([C@@H](C)O)NC(=O)[C@H](CC(=O)O)NC(=O)[C@H](CO)NC(=O)[C@H](CCCNC(=N)N)N(C)C(=O)c2ccccc2CSC(C)(C)[C@@H](C(=O)N[C@@H](Cc2c[nH]c3ccccc23)C(=O)N[C@H](CCC(=O)O)C(=O)N[C@H](CCCCNC(=O)COCC(=O)NCCCC[C@@H](NC(=O)[C@@H](CCC(=O)O)NC(=O)[C@H](Cc2c[nH]c3ccccc23)NC(=O)[C@H]2NC(=O)[C@H](CC(C)C)NC(=O)[C@H]([C@@H](C)O)NC(=O)[C@H](CC(=O)O)NC(=O)[C@H](CO)NC(=O)[C@H](CCCNC(=N)N)N(C)C(=O)c3ccccc3CSC2(C)C)C(=O)O)C(=O)O)NC1=O [compound 209] (I: [NMeR]SDTL[Pen]W[dE][dK]-OH / II: [NMeR]SDTL[Pen]W[dE][dK]-OH; linker I:9-II:9 via Diglycolyl; linker I:N-I:6, II:N-II:6 via X1)	< 25
CC(C)C[C@@H]1NC(=O)[C@H]([C@@H](C)O)NC(=O)[C@H](CC(=O)O)NC(=O)[C@H](CO)NC(=O)[C@H](CCCNC(=N)N)N(C)C(=O)c2ccccc2CSC(C)(C)[C@@H](C(=O)N[C@@H](Cc2cccc3ccccc23)C(=O)N[C@@H](CCC(=O)O)C(=O)N[C@H](CCCCNC(=O)COCC(=O)NCCCC[C@@H](NC(=O)[C@H](CCC(=O)O)NC(=O)[C@H](Cc2cccc3ccccc23)NC(=O)[C@H]2NC(=O)[C@H](CC(C)C)NC(=O)[C@H]([C@@H](C)O)NC(=O)[C@H](CC(=O)O)NC(=O)[C@H](CO)NC(=O)[C@H](CCCNC(=N)N)N(C)C(=O)c3ccccc3CSC2(C)C)C(N)=O)C(N)=O)NC1=O [compound 167] (I: [NMeR]SDTL[Pen][1Nal]E[dK]-NH2 / II: [NMeR]SDTL[Pen][1Nal]E[dK]-NH2; linker I:9-II:9 via Diglycolyl; linker I:N-I:6, II:N-II:6 via X1)	< 25
CC(C)C[C@@H]1NC(=O)[C@H]([C@@H](C)O)NC(=O)[C@H](CC(=O)O)NC(=O)[C@H](CO)NC(=O)[C@H](CCCNC(=N)N)N(C)C(=O)c2ccccc2CSC(C)(C)[C@@H](C(=O)N[C@@H](Cc2ccc(C(F)(F)F)cc2)C(=O)N[C@@H](CCC(=O)O)C(=O)N[C@H](CCCCNC(=O)COCC(=O)NCCCC[C@@H](NC(=O)[C@H](CCC(=O)O)NC(=O)[C@H](Cc2ccc(C(F)(F)F)cc2)NC(=O)[C@H]2NC(=O)[C@H](CC(C)C)NC(=O)[C@H]([C@@H](C)O)NC(=O)[C@H](CC(=O)O)NC(=O)[C@H](CO)NC(=O)[C@H](CCCNC(=N)N)N(C)C(=O)c3ccccc3CSC2(C)C)C(N)=O)C(N)=O)NC1=O [compound 166] (I: [NMeR]SDTL[Pen][Phe(4-CF3)]E[dK]-NH2 / II: [NMeR]SDTL[Pen][Phe(4-CF3)]E[dK]-NH2; linker I:9-II:9 via Diglycolyl; linker I:N-I:6, II:N-II:6 via X1)	< 25
